Data published in patent US8952024B2, “Herbicidal pyrimidone derivatives” (E I du Pont de Nemours and Company, priority 2009, dated 2015).

Assays:
Experiment in all cases: Test B pre-/postemergence plant response
Assay type in all cases: in vivo
[1] = test system: Italian ryegrass (Lolium multiflorum)
In short: (§1)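 Response scores were assigned visually after 13 to 15 days in a greenhouse, comparing treated pots with controls on a 0–100 scale where 100 denotes complete control. Preemergence treatments went onto freshly seeded loam/sand soil; postemergence treatments onto plants 2 to 18 cm tall.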

[2] = test system: Surinam grass (Brachiaria decumbens)
In short: as §1

corn (Zea mays) = test system: corn (Zea mays)
In short: as §1

[3] = test system: galium (catchweed bedstraw, Galium aparine); conditions: Preemergence; for Galium plant response rating: 125 g ai/ha
In short: as §1

[4] = test system: goosegrass (Eleusine indica)
In short: as §1

[5] = test system: lambsquarters (Chenopodium album)
In short: as §1

[6] = test system: large crabgrass (Digitaria sanguinalis)
In short: as §1

[7] = test system: nightshade (eastern black nightshade, Solanum ptycanthum); conditions: Preemergence; for Nightshade plant response rating: 125 g ai/ha
In short: as §1

[8] = test system: pigweed (Amaranthus retroflexus)
In short: as §1

[9] = test system: sunflower (common oilseed sunflower, Helianthus annuus); conditions: Preemergence; for Sunflower plant response rating: 125 g ai/ha
In short: as §1

[10] = test system: woolly cupgrass (Eriochloa villosa)
In short: as §1

[11] = test system: goosegrass (Eleusine indica); conditions: Preemergence, 62 g ai/ha; scale 0 to 100, 0 no effect, 100 complete control
[12] = 250 g ai/ha, Preemergence, 0 to 100 scale
[13] = Postemergence, 31 g ai/ha, scale 0 to 100 (0 no effect, 100 complete control)
[14] = Postemergence, 62 g ai/ha, scale 0 (no effect) to 100 (complete control), 13 to 15 days
[15] = Postemergence, 125 g ai/ha, visual rating after 13 to 15 days, scale 0 (no effect) to 100 (complete control)
[16] = Postemergence, 250 g ai/ha, scale 0 to 100
[17] = Preemergence, 31 g ai/ha, scale 0 to 100 (0 no effect, 100 complete control)
[18] = Preemergence, 62 g ai/ha, scale 0 to 100, 0 no effect, 100 complete control
[19] = Preemergence, 125 g ai/ha, 0 to 100 scale
[20] = 31 g ai/ha, scale 0 to 100 (0 no effect, 100 complete control)
[21] = 62 g ai/ha, scale 0 to 100, 0 no effect, 100 complete control
[22] = 31 g ai/ha, postemergence, scale 0 to 100, 0 is no effect, 100 is complete control
[23] = Postemergence, 250 g ai/ha, scale 0 to 100 (0 no effect, 100 complete control)

With `Cc1cccc(-n2c(-c3ccccc3)ncc(C(=O)C3=C(O)CCCC3=O)c2=O)c1C` [Compound 27] the “Plant response rating, Ryegrass, Italian” value [1, 12] was 0, the “Plant response rating, Ryegrass, Italian” value [1, 13] was 0 and the “Plant response rating, Ryegrass, Italian” value [1, 14] was 5. The “Plant response rating, Ryegrass, Italian” value [1, 15] was 5, the “Ryegrass, Italian plant response rating” value [1, 16] was 10 and the “Plant response rating, Ryegrass, Italian” value [1, 17] was 0. The “Plant response rating, Ryegrass, Italian” value [1, 18] was 0, the “Ryegrass, Italian plant response rating” value [1, 19] was 0 and the “Plant response rating, Surinam Grass” value [2, 12] was 95. The “Plant response rating, Surinam Grass” value [2, 13] was 50, the “Plant response rating, Surinam Grass” value [2, 14] was 70 and the “Plant response rating, Surinam Grass” value [2, 15] was 80. The “Surinam Grass plant response rating” value [2, 16] was 80, the “Plant response rating, Surinam Grass” value [2, 17] was 0 and the “Plant response rating, Surinam Grass” value [2, 18] was 20. For the same compound, the “Surinam Grass plant response rating” value [2, 19] was 60, the “Plant response rating, Corn” value (corn (Zea mays); [12]) was 0 and the “Plant response rating, Corn” value (corn (Zea mays); [13]) was 35. For the same compound, the “Plant response rating, Corn” value (corn (Zea mays); [14]) was 40, the “Plant response rating, Corn” value (corn (Zea mays); [15]) was 50 and the “Corn plant response rating” value (corn (Zea mays); [16]) was 70. The “Plant response rating, Corn” value (corn (Zea mays); [17]) was 0, the “Plant response rating, Corn” value (corn (Zea mays); [18]) was 0 and the “Corn plant response rating” value (corn (Zea mays); [19]) was 0. The “Plant response rating, Galium” value ([3]; 250 g ai/ha, 0 to 100 scale) was 95, the “Plant response rating, Galium” value [3, 20] was 0 and the “Plant response rating, Galium” value [3, 21] was 50. The “Galium plant response rating” value ([3]; 0 to 100 scale) was 85, the “Plant response rating, Goosegrass” value [4, 12] was 100 and the “Plant response rating, Goosegrass” value [4, 13] was 90. For the same compound, the “Plant response rating, Goosegrass” value [4, 14] was 90, the “Plant response rating, Goosegrass” value [4, 15] was 98 and the “Goosegrass plant response rating” value [4, 16] was 98. For the same compound, the “Plant response rating, Goosegrass” value [4, 17] was 80, the “Goosegrass plant response rating” value [4, 19] was 100 and the “Plant response rating, Lambsquarters” value [5, 12] was 100. The “Plant response rating, Lambsquarters” value [5, 13] was 90, the “Plant response rating, Lambsquarters” value [5, 14] was 95 and the “Plant response rating, Lambsquarters” value [5, 15] was 95. For the same compound, the “Lambsquarters plant response rating” value [5, 16] was 98, the “Plant response rating, Lambsquarters” value [5, 17] was 100 and the “Plant response rating, Lambsquarters” value [5, 18] was 100. For the same compound, the “Lambsquarters plant response rating” value [5, 19] was 100, the “Plant response rating, Crabgrass, Large” value [6, 12] was 100 and the “Plant response rating, Crabgrass, Large” value [6, 13] was 50. The “Plant response rating, Crabgrass, Large” value [6, 14] was 50, the “Plant response rating, Crabgrass, Large” value [6, 15] was 60 and the “Crabgrass, Large plant response rating” value [6, 16] was 60. For the same compound, the “Plant response rating, Crabgrass, Large” value [6, 17] was 5, the “Plant response rating, Crabgrass, Large” value [6, 18] was 80 and the “Crabgrass, Large plant response rating” value [6, 19] was 100. For the same compound, the “Plant response rating, Nightshade” value ([7]; 250 g ai/ha, 0 to 100 scale) was 100, the “Plant response rating, Nightshade” value [7, 20] was 80 and the “Plant response rating, Nightshade” value [7, 21] was 98. The “Nightshade plant response rating” value ([7]; 0 to 100 scale) was 100, the “Plant response rating, Pigweed” value [8, 12] was 100 and the “Plant response rating, Pigweed” value [8, 13] was 98. The “Plant response rating, Pigweed” value [8, 14] was 98, the “Plant response rating, Pigweed” value [8, 15] was 100 and the “Pigweed plant response rating” value [8, 16] was 100. The “Plant response rating, Pigweed” value [8, 17] was 100, the “Plant response rating, Pigweed” value [8, 18] was 100 and the “Pigweed plant response rating” value [8, 19] was 100. For the same compound, the “Plant response rating, Sunflower” value ([9]; 250 g ai/ha, 0 to 100 scale) was 100, the “Plant response rating, Sunflower” value [9, 20] was 75 and the “Plant response rating, Sunflower” value [9, 21] was 75. For the same compound, the “Sunflower plant response rating” value ([9]; 0 to 100 scale) was 90, the “Plant response rating, Cupgrass, Woolly” value [10, 12] was 80 and the “Plant response rating, Cupgrass, Woolly” value [10, 13] was 60. For the same compound, the “Plant response rating, Cupgrass, Woolly” value [10, 14] was 60, the “Plant response rating, Cupgrass, Woolly” value [10, 15] was 70 and the “Cupgrass, Woolly plant response rating” value [10, 16] was 80. The “Plant response rating, Cupgrass, Woolly” value [10, 17] was 0, the “Plant response rating, Cupgrass, Woolly” value [10, 18] was 0 and the “Cupgrass, Woolly plant response rating” value [10, 19] was 60. For the same compound, the “Plant response rating, Goosegrass” value [11] was 98.

In the case of `CCCn1c(-c2ccccc2)ncc(C(=O)C2=C(O)CCCC2=O)c1=O` [Compound 50], the “Plant response rating, Ryegrass, Italian” value [1, 22] was 0, the “Plant response rating, Ryegrass, Italian” value [1, 12] was 0 and the “Plant response rating, Ryegrass, Italian” value [1, 14] was 0. The “Plant response rating, Ryegrass, Italian” value [1, 15] was 0, the “Plant response rating, Ryegrass, Italian” value [1, 23] was 0 and the “Plant response rating, Ryegrass, Italian” value [1, 17] was 0. The “Ryegrass, Italian plant response rating” value [1, 19] was 0, the “Plant response rating, Surinam Grass” value [2, 22] was 65 and the “Plant response rating, Surinam Grass” value [2, 12] was 100. The “Plant response rating, Surinam Grass” value [2, 14] was 75, the “Plant response rating, Surinam Grass” value [2, 15] was 80 and the “Plant response rating, Surinam Grass” value [2, 23] was 85. The “Plant response rating, Surinam Grass” value [2, 17] was 75, the “Surinam Grass plant response rating” value [2, 19] was 98 and the “Plant response rating, Corn” value (corn (Zea mays); [22]) was 5. The “Plant response rating, Corn” value (corn (Zea mays); [12]) was 0, the “Plant response rating, Corn” value (corn (Zea mays); [14]) was 10 and the “Plant response rating, Corn” value (corn (Zea mays); [15]) was 25. The “Plant response rating, Corn” value (corn (Zea mays); [23]) was 25, the “Plant response rating, Corn” value (corn (Zea mays); [17]) was 0 and the “Plant response rating, Corn” value (corn (Zea mays); [18]) was 0. The “Corn plant response rating” value (corn (Zea mays); [19]) was 0, the “Plant response rating, Galium” value ([3]; 250 g ai/ha, 0 to 100 scale) was 98 and the “Plant response rating, Galium” value [3, 20] was 70. The “Plant response rating, Galium” value [3, 21] was 95, the “Galium plant response rating” value ([3]; 0 to 100 scale) was 95 and the “Plant response rating, Goosegrass” value [4, 22] was 75. For the same compound, the “Plant response rating, Goosegrass” value [4, 12] was 100, the “Plant response rating, Goosegrass” value [4, 14] was 80 and the “Plant response rating, Goosegrass” value [4, 15] was 90. For the same compound, the “Plant response rating, Goosegrass” value [4, 23] was 90, the “Plant response rating, Goosegrass” value [4, 17] was 95 and the “Goosegrass plant response rating” value [4, 19] was 100. The “Plant response rating, Lambsquarters” value [5, 22] was 98, the “Plant response rating, Lambsquarters” value [5, 12] was 100 and the “Plant response rating, Lambsquarters” value [5, 14] was 98. For the same compound, the “Plant response rating, Lambsquarters” value [5, 15] was 100, the “Plant response rating, Lambsquarters” value [5, 23] was 100 and the “Plant response rating, Lambsquarters” value [5, 17] was 100. The “Plant response rating, Lambsquarters” value [5, 18] was 100, the “Lambsquarters plant response rating” value [5, 19] was 100 and the “Plant response rating, Crabgrass, Large” value [6, 22] was 75. The “Plant response rating, Crabgrass, Large” value [6, 12] was 100, the “Plant response rating, Crabgrass, Large” value [6, 14] was 85 and the “Plant response rating, Crabgrass, Large” value [6, 15] was 95. The “Plant response rating, Crabgrass, Large” value [6, 23] was 98, the “Plant response rating, Crabgrass, Large” value [6, 17] was 98 and the “Plant response rating, Crabgrass, Large” value [6, 18] was 100. For the same compound, the “Crabgrass, Large plant response rating” value [6, 19] was 100, the “Plant response rating, Nightshade” value ([7]; 250 g ai/ha, 0 to 100 scale) was 100 and the “Plant response rating, Nightshade” value [7, 20] was 100. The “Plant response rating, Nightshade” value [7, 21] was 100, the “Nightshade plant response rating” value ([7]; 0 to 100 scale) was 100 and the “Plant response rating, Pigweed” value [8, 22] was 80. For the same compound, the “Plant response rating, Pigweed” value [8, 12] was 100, the “Plant response rating, Pigweed” value [8, 14] was 98 and the “Plant response rating, Pigweed” value [8, 15] was 100. For the same compound, the “Plant response rating, Pigweed” value [8, 23] was 100, the “Plant response rating, Pigweed” value [8, 17] was 90 and the “Pigweed plant response rating” value [8, 19] was 100. For the same compound, the “Plant response rating, Sunflower” value ([9]; 250 g ai/ha, 0 to 100 scale) was 85, the “Plant response rating, Sunflower” value [9, 20] was 55 and the “Sunflower plant response rating” value ([9]; 0 to 100 scale) was 85. For the same compound, the “Plant response rating, Cupgrass, Woolly” value [10, 22] was 70, the “Plant response rating, Cupgrass, Woolly” value [10, 12] was 70 and the “Plant response rating, Cupgrass, Woolly” value [10, 14] was 75. For the same compound, the “Plant response rating, Cupgrass, Woolly” value [10, 15] was 80, the “Plant response rating, Cupgrass, Woolly” value [10, 23] was 85 and the “Plant response rating, Cupgrass, Woolly” value [10, 17] was 0. The “Plant response rating, Cupgrass, Woolly” value [10, 18] was 5, the “Cupgrass, Woolly plant response rating” value [10, 19] was 15 and the “Plant response rating, Goosegrass” value [11] was 98.
